From patent EP1105136B1, “METHOD FOR TREATING OCULAR NEOVASCULAR DISEASES” (Novartis AG, priority 1998, dated 2000)

Tests used:
[1] = test system: retinal neovascularization in mice with ischemic retinopathy; assay: retinal neovascularization in mice with oxygen-induced ischemic retinopathy; assay type: in vivo, C57/BL6J mice
Description: Ischemic retinopathy is produced in C57/BL6J mice by the following method: • Seven-day-old mice and their mothers are placed in an airtight incubator and exposed to an atmosphere of 75 ± 3% oxygen for 5 days. Incubator temperature is maintained at 23 ± 2°C, and oxygen is measured every 8 hours with an oxygen analyzer. After 5 days, the mice are removed from the incubator, placed in room air, and drug treatment is begun. […] Vehicle (control) or vehicle containing various concentrations of drug (volume = 50 µl in neonates and 100 µl in adult mice) is placed in the stomach by gavage. After 5 days of treatment at P17, mice are sacrificed, eyes are rapidly removed and frozen in optimum cutting temperature embedding compound (OCT; Miles Diagnostics, Elkhart, IN) or fixed in 10% phosphate-buffered formalin and embedded in paraffin. Adult C57BL6J mice are also treated by gavage with drug or vehicle and after 5 days, they are sacrificed and their eyes are processed for frozen or paraffin sections.
Slides are rinsed with 0.05M Tris-buffered saline, pH 7.6 (TBS) and incubated 2 hours at room temperature with biotinylated lectin. […] Some slides are counterstained with hematoxyln and all are mounted with Cytoseal.
The entire eye is sampled by staining sections roughly 50-60 µm apart, which provided 13 sections per eye for analysis. […] The mean of the 13 measurements from each eye is used as a single experimental value.

PDGF receptors = assay: cellular autophosphorylation assay in transfected Chinese hamster ovary cells; assay type: cell-based; details: Chinese hamster ovary cells transfected with RTK gene
Description: (§1) In vivo activity requires drugs to enter cells and therefore agents are tested in cellular autophosphorylation assays, using Chinese hamster ovary cells transfected with one of several RTK genes.

VEGF receptors = assay: as above; assay type: cell-based; details: Chinese hamster ovary cells transfected with RTK gene
Description: as §1

c-Kit = biological target: T1, c-Kit (Homo sapiens, UniProt P10721); assay: as above; assay type: cell-based; details: Chinese hamster ovary cells transfected with RTK gene
T1 construct: expressed in transfected cells; host or cells: Chinese hamster ovary cells
Description: as §1

c-erbB2 = c-erbB2 (Homo sapiens, UniProt P04626); assay: as above; assay type: cell-based; details: Chinese hamster ovary cells transfected with RTK gene
insulin receptor = biological target: T2, insulin receptor (Homo sapiens, UniProt P06213); assay: as above; assay type: cell-based; details: Chinese hamster ovary cells transfected with RTK gene
T2 construct: expressed in transfected cells; host or cells: Chinese hamster ovary cells

[2] = test system: retinal vascular development; assay: retinal vascular development in neonatal mice; assay type: in vivo, C57/BL6J mice
Description: Litters of newborn C57/BL6J mice are divided into treatment and control groups which received daily subcutaneous injections of 10 mg/kg of drug or vehicle, respectively. At P7 or P10, mice are anesthetized with ether, and perfused with 1 ml of phosphate-buffered saline containing 50 mg/ml of fluorescein-labeled dextran (2x10^6 average mw, Sigma, St. Louis, MO).. The eyes are removed and fixed for 1 hour in 10% phosphate-buffered formalin. The cornea and lens are removed and the entire retina is carefully dissected from the eyecup, radially cut from the edge of the retina to the equator in all 4 quadrants, and flat-mounted in Aquamount. with photoreceptors facing upward.

[3] = test system: retinal vessels in adult mice; assay: effect on retinal vessels in adult mice; assay type: in vivo, C57BL6J mice; details: 50 mg/kg/day
Description: Vehicle (control) or vehicle containing various concentrations of drug (volume = 50 µl in neonates and 100 µl in adult mice) is placed in the stomach by gavage. […] Adult C57BL6J mice are also treated by gavage with drug or vehicle and after 5 days, they are sacrificed and their eyes are processed for frozen or paraffin sections. […] Slides are rinsed with 0.05M Tris-buffered saline, pH 7.6 (TBS) and incubated 2 hours at room temperature with biotinylated lectin. […] Some slides are counterstained with hematoxyln and all are mounted with Cytoseal. […] The mean of the 13 measurements from each eye is used as a single experimental value.

Flk-1 = Flk-1 (Mus musculus, UniProt P35918); details: mouse versus human VEGF receptor 2
[4] = test system: choroidal neovascularization; assay: laser-induced choroidal neovascularization in mice; details: 50 mg/kg/day by gavage, two weeks after laser
[5] = P17 mice, 2.5 mg/kg twice a day
[6] = P17 mice, 25 mg/kg twice a day, gavage, 5 days

Sequence of Flk-1 (P35918 832-1160 limits assumed): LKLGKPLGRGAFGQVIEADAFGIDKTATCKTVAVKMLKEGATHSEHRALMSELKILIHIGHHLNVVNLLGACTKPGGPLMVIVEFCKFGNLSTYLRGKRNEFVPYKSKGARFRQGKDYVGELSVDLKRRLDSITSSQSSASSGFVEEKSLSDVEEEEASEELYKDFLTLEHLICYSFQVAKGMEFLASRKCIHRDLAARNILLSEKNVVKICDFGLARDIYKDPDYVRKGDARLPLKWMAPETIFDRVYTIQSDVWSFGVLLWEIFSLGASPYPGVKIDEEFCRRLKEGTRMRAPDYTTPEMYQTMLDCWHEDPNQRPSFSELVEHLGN
T2 sequence (P06213 28-1382, species assumed): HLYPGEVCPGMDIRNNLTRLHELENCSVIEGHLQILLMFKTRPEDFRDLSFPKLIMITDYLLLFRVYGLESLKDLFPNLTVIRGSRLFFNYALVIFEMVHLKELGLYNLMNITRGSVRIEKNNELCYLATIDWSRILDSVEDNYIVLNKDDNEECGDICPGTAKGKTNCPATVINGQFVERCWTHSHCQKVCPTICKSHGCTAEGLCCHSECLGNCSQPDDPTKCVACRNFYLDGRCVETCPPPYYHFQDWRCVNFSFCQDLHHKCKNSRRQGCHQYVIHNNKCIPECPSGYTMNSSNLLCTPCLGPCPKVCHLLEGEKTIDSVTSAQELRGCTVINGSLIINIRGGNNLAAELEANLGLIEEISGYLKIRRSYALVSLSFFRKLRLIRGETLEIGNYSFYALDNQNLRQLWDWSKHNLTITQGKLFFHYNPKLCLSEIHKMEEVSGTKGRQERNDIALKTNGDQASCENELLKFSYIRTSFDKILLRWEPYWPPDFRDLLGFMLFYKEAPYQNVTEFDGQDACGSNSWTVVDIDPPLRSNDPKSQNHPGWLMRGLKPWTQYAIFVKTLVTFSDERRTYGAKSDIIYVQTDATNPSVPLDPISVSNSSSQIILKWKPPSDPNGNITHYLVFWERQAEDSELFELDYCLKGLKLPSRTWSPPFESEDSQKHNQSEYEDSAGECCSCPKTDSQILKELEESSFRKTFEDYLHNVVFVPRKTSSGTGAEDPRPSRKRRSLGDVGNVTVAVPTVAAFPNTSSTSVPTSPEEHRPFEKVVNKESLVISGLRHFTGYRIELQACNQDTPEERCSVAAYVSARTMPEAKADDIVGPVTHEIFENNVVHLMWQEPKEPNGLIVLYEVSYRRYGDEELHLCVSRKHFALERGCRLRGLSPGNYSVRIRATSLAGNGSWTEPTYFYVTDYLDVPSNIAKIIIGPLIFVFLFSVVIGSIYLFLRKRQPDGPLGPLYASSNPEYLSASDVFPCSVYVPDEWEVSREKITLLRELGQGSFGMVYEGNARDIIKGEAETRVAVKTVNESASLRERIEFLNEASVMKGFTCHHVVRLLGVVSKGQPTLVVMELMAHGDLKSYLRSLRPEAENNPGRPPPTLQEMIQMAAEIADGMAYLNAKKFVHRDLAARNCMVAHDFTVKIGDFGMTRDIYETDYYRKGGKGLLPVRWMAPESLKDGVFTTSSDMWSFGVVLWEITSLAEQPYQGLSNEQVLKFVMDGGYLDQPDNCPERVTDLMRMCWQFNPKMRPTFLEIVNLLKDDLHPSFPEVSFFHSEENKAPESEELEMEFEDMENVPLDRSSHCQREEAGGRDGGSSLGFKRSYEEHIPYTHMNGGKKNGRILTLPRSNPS
T1 sequence (P10721 26-976): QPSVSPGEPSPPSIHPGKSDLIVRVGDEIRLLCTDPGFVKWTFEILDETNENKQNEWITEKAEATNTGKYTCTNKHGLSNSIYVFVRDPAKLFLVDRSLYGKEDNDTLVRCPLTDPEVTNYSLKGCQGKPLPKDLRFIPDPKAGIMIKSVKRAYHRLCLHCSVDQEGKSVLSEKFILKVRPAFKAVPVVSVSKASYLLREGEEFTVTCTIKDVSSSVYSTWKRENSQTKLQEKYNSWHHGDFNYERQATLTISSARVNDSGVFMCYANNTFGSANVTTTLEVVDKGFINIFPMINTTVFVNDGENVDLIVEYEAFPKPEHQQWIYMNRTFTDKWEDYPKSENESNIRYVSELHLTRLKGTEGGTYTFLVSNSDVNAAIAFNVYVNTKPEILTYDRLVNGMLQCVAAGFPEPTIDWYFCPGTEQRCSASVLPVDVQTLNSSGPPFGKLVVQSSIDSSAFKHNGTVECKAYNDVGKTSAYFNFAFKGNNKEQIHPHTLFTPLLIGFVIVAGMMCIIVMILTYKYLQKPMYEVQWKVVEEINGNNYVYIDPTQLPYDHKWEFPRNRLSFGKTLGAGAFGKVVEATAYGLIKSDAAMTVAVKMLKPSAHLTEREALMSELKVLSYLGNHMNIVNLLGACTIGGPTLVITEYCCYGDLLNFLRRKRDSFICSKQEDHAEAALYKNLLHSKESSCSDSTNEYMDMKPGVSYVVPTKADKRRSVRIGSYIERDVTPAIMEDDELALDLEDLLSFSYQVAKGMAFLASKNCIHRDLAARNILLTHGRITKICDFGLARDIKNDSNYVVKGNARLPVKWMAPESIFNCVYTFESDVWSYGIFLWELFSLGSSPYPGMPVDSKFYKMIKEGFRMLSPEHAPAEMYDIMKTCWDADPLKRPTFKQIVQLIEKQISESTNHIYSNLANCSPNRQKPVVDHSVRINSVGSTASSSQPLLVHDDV
Sequence of c-erbB2 (P04626 23-1255): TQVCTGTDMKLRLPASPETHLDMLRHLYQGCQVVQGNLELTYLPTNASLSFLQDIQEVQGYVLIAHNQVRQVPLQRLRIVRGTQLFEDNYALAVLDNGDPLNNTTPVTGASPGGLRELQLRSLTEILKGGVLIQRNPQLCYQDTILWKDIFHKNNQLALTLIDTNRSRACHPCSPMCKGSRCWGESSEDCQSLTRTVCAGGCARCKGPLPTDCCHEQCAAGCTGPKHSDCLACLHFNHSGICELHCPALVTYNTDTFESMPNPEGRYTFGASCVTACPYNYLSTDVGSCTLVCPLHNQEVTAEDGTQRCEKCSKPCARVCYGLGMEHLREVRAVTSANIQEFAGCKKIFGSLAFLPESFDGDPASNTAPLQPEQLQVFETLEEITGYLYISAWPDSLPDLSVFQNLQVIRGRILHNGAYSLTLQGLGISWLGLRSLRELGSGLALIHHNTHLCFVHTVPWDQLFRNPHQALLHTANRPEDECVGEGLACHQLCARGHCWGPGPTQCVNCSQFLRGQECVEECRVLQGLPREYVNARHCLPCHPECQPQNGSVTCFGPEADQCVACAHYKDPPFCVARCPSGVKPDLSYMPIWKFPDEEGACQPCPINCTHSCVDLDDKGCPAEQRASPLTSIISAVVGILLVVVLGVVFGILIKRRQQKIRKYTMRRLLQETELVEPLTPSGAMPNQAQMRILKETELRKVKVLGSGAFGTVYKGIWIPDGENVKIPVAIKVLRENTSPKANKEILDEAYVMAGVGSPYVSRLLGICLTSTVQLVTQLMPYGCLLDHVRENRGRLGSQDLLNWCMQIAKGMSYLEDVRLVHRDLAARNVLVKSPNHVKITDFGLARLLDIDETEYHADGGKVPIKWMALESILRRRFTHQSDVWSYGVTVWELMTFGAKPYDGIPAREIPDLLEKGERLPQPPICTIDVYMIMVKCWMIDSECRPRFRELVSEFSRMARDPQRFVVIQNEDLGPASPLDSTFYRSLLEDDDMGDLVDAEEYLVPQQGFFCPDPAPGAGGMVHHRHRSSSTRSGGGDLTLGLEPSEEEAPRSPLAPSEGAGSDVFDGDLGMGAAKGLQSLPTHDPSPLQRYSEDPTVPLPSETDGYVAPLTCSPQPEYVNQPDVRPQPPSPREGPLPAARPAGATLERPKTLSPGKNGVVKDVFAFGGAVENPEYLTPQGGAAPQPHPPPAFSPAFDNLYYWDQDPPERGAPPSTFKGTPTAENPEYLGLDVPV

Compound	endothelial staining in the retina ([1]; dose comparable to the highest dose of CGP 79787D)	autophosphorylation (PDGF receptors)	autophosphorylation (VEGF receptors)	autophosphorylation (c-Kit)	autophosphorylation (c-erbB2)	autophosphorylation (insulin receptor)	staining in the inner nuclear layer ([1]; P17 mice, 0.25 mg/kg)	total endothelial staining in the retina ([1]; P17 mice, 0.25 mg/kg)	endothelial cell staining in the retina [1, 5]	endothelial staining in the inner nuclear layer [1, 5]	endothelial cell staining in the inner nuclear layer and outer plexiform layer (deep capillary bed) ([1]; P17 mice, 25 mg/kg twice a day)	endothelial cell staining within the retina [1, 6]	neovascularization (endothelial cells on the surface of the retina) [1, 6]	extension of retinal vessels ([2]; P7, injections of 10 mg/kg starting on P0)	extension of the superficial capillary bed ([2]; P10, injections of 10 mg/kg starting on P0)	total area of endothelial staining in the retina or the appearance of retinal vessels compared to vehicle-treated mice [3]	less potent as an inhibitor of mouse VEGF receptor 2 compared to the human receptor (Flk-1)	choroidal neovascularization at the site of each laser-induced rupture of Bruch's membrane [4]	overlying retinal vessels [4]	integrated area of lectin staining per lesion ([4]; n = 5) [mm^2]
O=c1c(-c2ccc(O)cc2)coc2cc(O)cc(O)c12 [Genistein, 4', 5,7-trihydroxyisoflavone, reference compound]	no significant decrease																			
Clc1ccc(Nc2nnc(Cc3ccncc3)c3ccccc23)cc1 [CGP 79787D]		inhibits	inhibits	inhibits	poor inhibitor	poor inhibitor	no identifiable decrease	decreased total endothelial staining in the retina that is not statistically significant	significantly less than vehicle-treated controls	some decrease	striking absence	dramatic decrease	complete inhibition	only extended about half way to the periphery	has not yet reached the edge of the retina	no difference	about 10 fold	very little if any	appeared normal	0.01124±0.001483
